Assay results reported in the NIST ThermoML archive (doi:10.1007/s10765-007-0223-x).

Experiment: xn = mol fraction of the nth substance listed
Conditions: 101 kPa, Liquid; for speed of sound: Single path-length method

COC(C)(C)C [2-methoxy-2-methylpropane] + c1ccccc1
Conditions | mass density, 288.15 K [kg/m3] | mass density, 290.65 K [kg/m3] | mass density, 293.15 K [kg/m3] | mass density, 295.65 K [kg/m3] | speed of sound, 288.15 K [m/s] | speed of sound, 290.65 K [m/s] | speed of sound, 293.15 K [m/s] | speed of sound, 295.65 K [m/s]
x1 = 0.052 | 874.712 | 872.067 | 869.419 | 866.766 | 1328.4 | 1316.5 | 1304.8 | 1293
x1 = 0.111 | 864.515 | 861.888 | 859.259 | 856.624 | 1309.5 | 1297.5 | 1285.9 | 1274.2
x1 = 0.202 | 849.416 | 846.799 | 844.19 | 841.573 | 1281.7 | 1269.6 | 1258 | 1246.3
x1 = 0.303 | 833.719 | 831.129 | 828.533 | 825.932 | 1252.5 | 1240.5 | 1228.9 | 1217.3
x1 = 0.397 | 819.912 | 817.328 | 814.742 | – | 1226.5 | 1214.4 | 1202.9 | 1191.3
x1 = 0.5 | 805.496 | 802.92 | 800.338 | – | 1199.1 | 1187.2 | 1175.6 | 1164
x1 = 0.596 | 792.712 | 790.137 | 787.557 | – | 1174.8 | 1163 | 1151.4 | 1139.8
x1 = 0.698 | 779.712 | 777.135 | 774.552 | – | 1149.4 | 1137.7 | 1126.2 | 1114.6
x1 = 0.791 | 768.503 | 765.921 | 763.334 | – | 1128.2 | 1116.4 | 1104.8 | 1093.1
x1 = 0.902 | 755.682 | 753.094 | 750.497 | – | 1103 | 1091.2 | 1079.6 | 1067.9
x1 = 0.95 | 750.294 | 747.701 | 745.1 | – | 1092.4 | 1080.6 | 1069 | 1057.2
x1 = 1 | 744.861 | 742.259 | 739.654 | – | 1083.4 | 1071.6 | 1060 | 1048.5
